{"source": "patent US20230293560A1", "about": "“METHOD FOR MODULATING THE BLADDER MICROBIOME TO IMPROVE BLADDER HEALTH” (Kimberly-Clark Worldwide, Inc., priority 2020, published 2023)", "key": {"[1]": {"system": "L. crispatus", "assay": "Plate assay screening of prebiotics", "assay_type": "cell-based, Lactobacillus crispatus", "design": "key: ++: if growth and fermentation was equal to or greater than the positive control; +: if growth and fermentation was less than the positive control; +: if weak or no growth or fermentation; +^2: Bacteria demonstrated growth but no fermentation on the prebiotic", "conditions": "MRS-based agar with glucose substituted by prebiotic", "protocol": "(§1) Most of the prebiotic compounds were initially tested in a high throughput assay screening process, described further in the Test Methods section herein, but three prebiotics (as noted in Table 3) were tested using a plate assay screening process as described in the Test Methods section herein. The prebiotics were tested against the commensal bacterial species of Lactobacillus crispatus, Lactobacillus gasseri, and Lactobacillus jensenii and against the pathogenic bacterial species of Streptococcus anginosus and Enterococcus faecalis as shown in Table 2. The bacterial species were taken from different sources, listed as culture collection, bladder, and vagina. […]\n(§2) • 1. […] Bacteria were enumerated on each agar and color changes were recorded. […] Small colonies are counted as S. anginosus and large colonies are counted as L. crispatus. • 10. […]"}, "[2]": {"system": "S. anginosus", "assay": "Plate assay screening of prebiotics", "assay_type": "cell-based, Streptococcus anginosus", "design": "key: ++: if growth and fermentation was equal to or greater than the positive control; +: if growth and fermentation was less than the positive control; +: if weak or no growth or fermentation; +^2: Bacteria demonstrated growth but no fermentation on the prebiotic", "conditions": "S. anginosus KC18-1131-3B, Bladder; MRS-based agar with glucose substituted by prebiotic", "protocol": "as §1, §2"}, "[3]": {"system": "L. jensenii", "assay": "Plate assay screening of prebiotics", "assay_type": "cell-based, Lactobacillus jensenii", "design": "key: ++: if growth and fermentation was equal to or greater than the positive control; +: if growth and fermentation was less than the positive control; +: if weak or no growth or fermentation; +^2: Bacteria demonstrated growth but no fermentation on the prebiotic", "conditions": "L. jensenii KC17-4297-18, Bladder; MRS-based agar with glucose substituted by prebiotic", "protocol": "as §1, §2"}, "[4]": {"system": "E. faecalis", "assay": "Plate assay screening of prebiotics", "assay_type": "cell-based, Enterococcus faecalis", "design": "key: ++: if growth and fermentation was equal to or greater than the positive control; +: if growth and fermentation was less than the positive control; +: if weak or no growth or fermentation; +^2: Bacteria demonstrated growth but no fermentation on the prebiotic", "conditions": "E. faecalis KC16-7171-3, Bladder; MRS-based agar with glucose substituted by prebiotic", "protocol": "as §1, §2"}, "[5]": {"system": "E. coli", "assay": "Additional prebiotic screening against E. coli (plate assay)", "assay_type": "cell-based, Escherichia coli", "excerpt": "Additional screening of three prebiotic compounds of alpha-methyl-D-glucoside, isomaltulose, and alpha cyclodextrin was completed against pathogenic bacteria species Escherichia coli from both bladder and vaginal sources, as shown in Table 4. The growth of the bacterial species for this additional screening process against E. coli was not compared to growth of a control as in the screening process documented in Table 3, but was documented based on growth or no growth for the number of samples tested.\n• 1. An in house bacterial agar was created based on MRS agar (Kaplan and Hutkins, 2000) where the glucose is substituted for the prebiotic to be tested (either dextran MW ˜6,000, alpha-cyclodextrin, glucomannan, or pectin), bromocresol purple was included as a pH indicator. • 2. Bacteria were enumerated on each agar and color changes were recorded. Method for Competition Assay (Modified from “In Vitro Evaluation of Nutrients that Selectively Confer a Competitive Advantage to Lactobacilli” Vongsa et al, Beneficial Microbes 2016) • 1. Create 2% w/v stock of prebiotic or positive control (glucose/dextrose) as described above. • 2. From a freezer stock subculture the bacteria twice into De Man, Rogosa and Sharpe (MRS) broth (BD Difco, Becton Dickinson, Franklin Lakes, NJ), 37° C., stationary, anaerobic, overnight. • 3. From the last subculture, plate onto an MRS agar plate for L. crispatus KC18-1173-1 or blood agar for S. anginosus KC18-1131-3B, grow 37° C., stationary, anaerobic, overnight. • 4. Create a bacterial suspension by using a sterile tipped swab to transfer colonies of bacteria into a PBS suspension blank to a 2 MacFarland for both species. • 5. Enumerate the starting culture. • 6. Add 9.8 mL of prebiotic media into a 15 mL conical tube. • 7. Add 100 μL of the diluted bacteria to the media, incubate at 37° C., anaerobic, 48 hours. • 8. Harvest 100 μL from the tube containing the prebiotic and plate onto MRS agar and tryptic soy agar (TSA). • 9. […] Small colonies are counted as S. anginosus and large colonies are counted as L. crispatus. • 10. […]"}, "[6]": {"system": "commensal and pathogenic bacterial species", "assay": "Prebiotic screening, summary in words across species", "assay_type": "cell-based", "conditions": "commensal (L. crispatus, L. gasseri, L. jensenii) and pathogenic (S. anginosus, E. faecalis) species", "method_in_brief": "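Prebiotics at 2% w/v stock in API 50 CHL medium with bromocresol purple, inoculated with bacteria and read every 20 min for 24-48 h at OD430/590 (fermentation) and OD660 (growth), scored against a glucose control. Some tested on MRS-based agar with the prebiotic in place of glucose; competition assay with L. crispatus and S. anginosus incubated 48 h anaerobically at 37 °C, then enumerated on MRS and TSA.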"}, "[7]": {"conditions": "E. coli KC17-3970-4, Vagina, of 1 tested"}}, "data": [{"smiles": "OC[C@H]1O[C@@H]2O[C@H]3[C@H](O)[C@@H](O)[C@@H](O[C@H]4[C@H](O)[C@@H](O)[C@@H](O[C@H]5[C@H](O)[C@@H](O)[C@@H](O[C@H]6[C@H](O)[C@@H](O)[C@@H](O[C@H]7[C@H](O)[C@@H](O)[C@@H](O[C@H]1[C@H](O)[C@H]2O)O[C@@H]7CO)O[C@@H]6CO)O[C@@H]5CO)O[C@@H]4CO)O[C@@H]3CO", "note": "[Alpha Cyclodextrin, Alpha-Cyclodextrin]", "values": [{"measurement": "growth and fermentation vs positive control, Lc-2 (plate assay)", "setting": "[1]; L. crispatus KC16-7134-3C, Bladder", "value": "+"}, {"measurement": "growth and fermentation vs positive control, Lc-3 (plate assay)", "setting": "[1]; L. crispatus KC18-1173-1, Bladder", "value": "+^2"}, {"measurement": "growth and fermentation vs positive control, Sa-2 (plate assay)", "setting": "[2]", "value": "+"}, {"measurement": "growth and fermentation vs positive control, Lj-1 (plate assay)", "setting": "[3]", "value": "+"}, {"measurement": "growth and fermentation vs positive control, Ef-2 (plate assay)", "setting": "[4]", "value": "+"}, {"measurement": "# fermented, Ec-3 (plate assay)", "setting": "[5]; [7]", "value": 0}, {"measurement": "# grew, Ec-3 (plate assay)", "setting": "[5]; [7]", "value": 1}, {"measurement": "growth of E. coli Ec-3, in words", "setting": "[5]; the one E. coli species tested (Ec-3), vaginal source", "value": "did grow"}, {"measurement": "overall outcome of the screening of Table 3, in words", "setting": "[6]", "value": "growing at least some of the commensal bacterial species and either having less growth than the positive control or almost no growth of the pathogenic bacterial species"}]}]}
